In the kinase profiling compilation of Christmann-Franck et al. (2016):

Experiments:
Test in all cases: KINOMEscan competition binding
Conditions in all cases: compound 10.0 µM
PKN2 (human) = PKN2 (human) (UniProt Q16513)
MAP2K1 (human) = MAP2K1 (human) (UniProt Q02750)
HIPK3 (human) = HIPK3 (human) (UniProt Q9H422)
ALK (human) = ALK (human) (UniProt Q9UM73)
SBK1 (human) = SBK1 (human) (UniProt Q52WX2)
STK35 (human) = STK35 (human) (UniProt Q8TDR2)
BRAF (human) = BRAF (human) (UniProt P15056)
RAF1 (human) = RAF1 (human) (UniProt P04049)
MAP3K15 (human) = MAP3K15 (human) (UniProt Q6ZN16)
NEK7 (human) = NEK7 (human) (UniProt Q8TDX7)
INSRR (human) = INSRR (human) (UniProt P14616)
SLK (human) = SLK (human) (UniProt Q9H2G2)
SRPK1 (human) = SRPK1 (human) (UniProt Q96SB4)
AURKA (human) = AURKA (human) (UniProt O14965)
[1] = system: PIK3CA (human), P42336 [H1047L]
MAPK10 (human) = MAPK10 (human) (UniProt P53779)
MAP3K7 (human) = MAP3K7 (human) (UniProt O43318)
PLK2 (human) = PLK2 (human) (UniProt Q9NYY3)
NEK2 (human) = NEK2 (human) (UniProt P51955)
[2] = system: ABL1 (human), P00519 [E255K]
[3] = system: ABL1 (human), P00519 [Q252H]
MAP4K1 (human) = MAP4K1 (human) (UniProt Q92918)
ZAP70 (human) = ZAP70 (human) (UniProt P43403)
[4] = system: PIK3CA (human), P42336 [H1047Y]
RET (human) = RET (human) (UniProt P07949)
CHUK (human) = CHUK (human) (UniProt O15111)
MAPKAPK5 (human) = MAPKAPK5 (human) (UniProt Q8IW41)
DYRK2 (human) = DYRK2 (human) (UniProt Q92630)
MAP3K4 (human) = MAP3K4 (human) (UniProt Q9Y6R4)
[5] = biological target: JAK3 JH1 catalytic (human) (UniProt P52333)
RPS6KA1 KD1 (human) = RPS6KA1 KD1 (human) (UniProt Q15418)
CLK4 (human) = CLK4 (human) (UniProt Q9HAZ1)
ADCK3 (human) = ADCK3 (human) (UniProt Q8NI60)
MAPK4 (human) = MAPK4 (human) (UniProt P31152)
NEK9 (human) = NEK9 (human) (UniProt Q8TD19)
EIF2AK2 (human) = EIF2AK2 (human) (UniProt P19525)
DCLK1 (human) = DCLK1 (human) (UniProt O15075)
CHEK1 (human) = CHEK1 (human) (UniProt O14757)
ERBB4 (human) = ERBB4 (human) (UniProt Q15303)
ADCK4 (human) = ADCK4 (human) (UniProt Q96D53)
MAPK12 (human) = MAPK12 (human) (UniProt P53778)

Chain of MAP3K4 (human) (Q9Y6R4 whole entry, looked up): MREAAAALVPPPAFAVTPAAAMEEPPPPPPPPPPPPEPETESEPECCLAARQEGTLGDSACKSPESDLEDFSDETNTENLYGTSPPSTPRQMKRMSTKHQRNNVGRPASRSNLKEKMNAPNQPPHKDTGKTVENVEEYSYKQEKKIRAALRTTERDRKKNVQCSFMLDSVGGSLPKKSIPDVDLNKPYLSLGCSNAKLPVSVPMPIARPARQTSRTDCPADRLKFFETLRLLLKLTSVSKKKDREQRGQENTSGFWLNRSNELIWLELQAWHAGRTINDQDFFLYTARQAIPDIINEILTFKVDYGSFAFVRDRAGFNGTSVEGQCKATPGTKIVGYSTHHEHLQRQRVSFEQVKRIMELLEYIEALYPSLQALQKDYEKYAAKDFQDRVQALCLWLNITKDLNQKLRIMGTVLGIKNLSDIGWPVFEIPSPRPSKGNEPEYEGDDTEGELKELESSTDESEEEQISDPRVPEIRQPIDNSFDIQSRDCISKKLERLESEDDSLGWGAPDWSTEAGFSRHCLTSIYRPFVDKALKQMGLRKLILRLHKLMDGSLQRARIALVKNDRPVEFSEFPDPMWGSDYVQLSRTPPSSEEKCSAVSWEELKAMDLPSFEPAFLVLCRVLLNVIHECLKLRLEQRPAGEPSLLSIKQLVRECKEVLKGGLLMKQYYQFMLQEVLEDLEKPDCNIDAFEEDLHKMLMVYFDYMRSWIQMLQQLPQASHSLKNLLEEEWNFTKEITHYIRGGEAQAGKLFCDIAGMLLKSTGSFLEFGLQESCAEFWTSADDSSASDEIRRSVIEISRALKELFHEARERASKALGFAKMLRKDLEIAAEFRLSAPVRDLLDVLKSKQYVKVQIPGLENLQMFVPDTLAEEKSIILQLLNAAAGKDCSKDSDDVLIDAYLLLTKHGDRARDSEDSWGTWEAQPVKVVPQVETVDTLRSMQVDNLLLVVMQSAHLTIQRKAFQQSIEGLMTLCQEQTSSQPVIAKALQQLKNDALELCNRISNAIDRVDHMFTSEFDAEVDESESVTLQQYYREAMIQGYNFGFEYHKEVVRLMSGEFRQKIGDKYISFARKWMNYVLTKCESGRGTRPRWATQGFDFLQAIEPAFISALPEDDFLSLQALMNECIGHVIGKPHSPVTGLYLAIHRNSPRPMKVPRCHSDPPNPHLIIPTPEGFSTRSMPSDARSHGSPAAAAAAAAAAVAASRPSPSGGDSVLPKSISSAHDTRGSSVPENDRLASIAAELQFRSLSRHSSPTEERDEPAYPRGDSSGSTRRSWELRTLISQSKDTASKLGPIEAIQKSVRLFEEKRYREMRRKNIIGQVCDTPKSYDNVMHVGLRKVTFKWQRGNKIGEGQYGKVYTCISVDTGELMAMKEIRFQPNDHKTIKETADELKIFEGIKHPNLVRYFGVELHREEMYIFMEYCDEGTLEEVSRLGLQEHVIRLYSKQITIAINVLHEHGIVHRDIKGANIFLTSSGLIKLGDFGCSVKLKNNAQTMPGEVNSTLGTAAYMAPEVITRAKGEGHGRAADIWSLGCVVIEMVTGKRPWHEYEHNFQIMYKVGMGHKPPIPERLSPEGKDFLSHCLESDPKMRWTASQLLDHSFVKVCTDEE
Chain of MAP4K1 (human) (Q92918 whole entry, looked up): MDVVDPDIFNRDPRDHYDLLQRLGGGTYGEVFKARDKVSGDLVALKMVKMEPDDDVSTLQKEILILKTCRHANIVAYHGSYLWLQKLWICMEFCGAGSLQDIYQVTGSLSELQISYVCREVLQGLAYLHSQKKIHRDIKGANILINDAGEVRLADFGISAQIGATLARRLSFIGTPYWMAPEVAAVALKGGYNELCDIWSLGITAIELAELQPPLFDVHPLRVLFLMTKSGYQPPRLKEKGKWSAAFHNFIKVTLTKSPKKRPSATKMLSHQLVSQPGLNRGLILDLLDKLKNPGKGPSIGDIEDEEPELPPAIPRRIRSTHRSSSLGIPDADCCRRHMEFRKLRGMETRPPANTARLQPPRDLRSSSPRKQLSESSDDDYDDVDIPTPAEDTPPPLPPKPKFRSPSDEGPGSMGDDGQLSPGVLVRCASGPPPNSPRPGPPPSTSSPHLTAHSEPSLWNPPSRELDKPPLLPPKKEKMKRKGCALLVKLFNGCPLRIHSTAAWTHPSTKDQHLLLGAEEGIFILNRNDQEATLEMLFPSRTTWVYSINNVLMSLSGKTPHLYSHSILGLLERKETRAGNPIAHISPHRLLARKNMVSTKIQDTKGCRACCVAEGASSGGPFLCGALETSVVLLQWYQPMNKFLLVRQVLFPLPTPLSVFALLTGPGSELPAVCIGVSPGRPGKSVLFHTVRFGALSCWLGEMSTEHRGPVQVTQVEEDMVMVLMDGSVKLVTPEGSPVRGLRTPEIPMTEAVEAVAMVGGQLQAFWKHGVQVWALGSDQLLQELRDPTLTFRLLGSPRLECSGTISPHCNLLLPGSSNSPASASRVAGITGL
Chain of AURKA (human) (O14965 whole entry, looked up): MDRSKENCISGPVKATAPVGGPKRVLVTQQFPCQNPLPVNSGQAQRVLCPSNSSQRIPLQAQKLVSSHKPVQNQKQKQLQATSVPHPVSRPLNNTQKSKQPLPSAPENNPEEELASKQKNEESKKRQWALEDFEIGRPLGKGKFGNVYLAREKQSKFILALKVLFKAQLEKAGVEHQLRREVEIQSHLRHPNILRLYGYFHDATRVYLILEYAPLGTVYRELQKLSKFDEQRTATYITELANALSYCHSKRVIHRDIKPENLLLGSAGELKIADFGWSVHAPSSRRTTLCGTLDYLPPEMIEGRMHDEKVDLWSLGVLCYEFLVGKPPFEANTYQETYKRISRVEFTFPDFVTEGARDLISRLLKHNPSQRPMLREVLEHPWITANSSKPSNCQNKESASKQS
Chain of SBK1 (human) (Q52WX2 whole entry, looked up): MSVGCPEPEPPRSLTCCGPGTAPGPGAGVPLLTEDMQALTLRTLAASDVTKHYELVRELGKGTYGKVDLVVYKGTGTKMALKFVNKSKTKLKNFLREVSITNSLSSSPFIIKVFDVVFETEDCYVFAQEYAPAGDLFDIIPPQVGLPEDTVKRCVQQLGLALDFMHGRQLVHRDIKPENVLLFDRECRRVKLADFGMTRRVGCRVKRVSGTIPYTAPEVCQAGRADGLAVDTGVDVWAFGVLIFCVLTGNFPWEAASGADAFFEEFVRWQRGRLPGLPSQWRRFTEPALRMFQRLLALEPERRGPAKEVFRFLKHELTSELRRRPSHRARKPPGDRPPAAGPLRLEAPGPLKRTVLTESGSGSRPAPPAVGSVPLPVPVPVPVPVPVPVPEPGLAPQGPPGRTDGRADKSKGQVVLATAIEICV
Chain of MAPKAPK5 (human) (Q8IW41 whole entry, looked up): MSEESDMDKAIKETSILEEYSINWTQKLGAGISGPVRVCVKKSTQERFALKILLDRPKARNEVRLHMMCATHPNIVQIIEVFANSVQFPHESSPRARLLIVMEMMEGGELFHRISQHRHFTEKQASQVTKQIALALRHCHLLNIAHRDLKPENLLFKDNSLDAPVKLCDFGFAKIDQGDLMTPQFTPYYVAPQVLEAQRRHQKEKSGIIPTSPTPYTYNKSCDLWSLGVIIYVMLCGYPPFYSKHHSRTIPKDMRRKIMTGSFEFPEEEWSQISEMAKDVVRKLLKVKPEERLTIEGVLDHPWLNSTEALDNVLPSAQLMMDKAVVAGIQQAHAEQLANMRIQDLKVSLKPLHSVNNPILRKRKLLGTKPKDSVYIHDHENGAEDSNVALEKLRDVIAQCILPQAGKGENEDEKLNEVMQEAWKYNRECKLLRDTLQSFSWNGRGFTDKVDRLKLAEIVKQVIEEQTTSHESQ
Chain of PLK2 (human) (Q9NYY3 whole entry, looked up): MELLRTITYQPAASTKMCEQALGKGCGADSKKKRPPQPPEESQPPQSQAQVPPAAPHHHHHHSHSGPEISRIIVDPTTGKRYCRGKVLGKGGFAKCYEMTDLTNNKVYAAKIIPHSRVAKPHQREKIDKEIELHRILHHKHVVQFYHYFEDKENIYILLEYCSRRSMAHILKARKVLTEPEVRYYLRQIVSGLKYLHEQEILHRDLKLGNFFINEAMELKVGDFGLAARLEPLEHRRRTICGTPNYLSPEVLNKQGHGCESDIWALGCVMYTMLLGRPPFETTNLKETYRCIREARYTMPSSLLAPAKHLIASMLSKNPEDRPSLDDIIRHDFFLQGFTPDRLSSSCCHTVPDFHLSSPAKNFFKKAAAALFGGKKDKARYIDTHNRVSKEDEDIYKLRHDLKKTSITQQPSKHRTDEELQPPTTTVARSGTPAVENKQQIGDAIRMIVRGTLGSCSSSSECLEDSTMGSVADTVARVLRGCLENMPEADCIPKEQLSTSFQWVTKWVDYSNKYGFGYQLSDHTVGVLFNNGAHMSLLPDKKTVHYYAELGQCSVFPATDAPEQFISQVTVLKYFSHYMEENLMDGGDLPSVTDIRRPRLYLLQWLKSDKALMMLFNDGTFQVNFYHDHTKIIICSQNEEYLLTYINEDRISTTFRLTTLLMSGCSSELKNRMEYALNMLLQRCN
Chain of RAF1 (human) (P04049 whole entry, looked up): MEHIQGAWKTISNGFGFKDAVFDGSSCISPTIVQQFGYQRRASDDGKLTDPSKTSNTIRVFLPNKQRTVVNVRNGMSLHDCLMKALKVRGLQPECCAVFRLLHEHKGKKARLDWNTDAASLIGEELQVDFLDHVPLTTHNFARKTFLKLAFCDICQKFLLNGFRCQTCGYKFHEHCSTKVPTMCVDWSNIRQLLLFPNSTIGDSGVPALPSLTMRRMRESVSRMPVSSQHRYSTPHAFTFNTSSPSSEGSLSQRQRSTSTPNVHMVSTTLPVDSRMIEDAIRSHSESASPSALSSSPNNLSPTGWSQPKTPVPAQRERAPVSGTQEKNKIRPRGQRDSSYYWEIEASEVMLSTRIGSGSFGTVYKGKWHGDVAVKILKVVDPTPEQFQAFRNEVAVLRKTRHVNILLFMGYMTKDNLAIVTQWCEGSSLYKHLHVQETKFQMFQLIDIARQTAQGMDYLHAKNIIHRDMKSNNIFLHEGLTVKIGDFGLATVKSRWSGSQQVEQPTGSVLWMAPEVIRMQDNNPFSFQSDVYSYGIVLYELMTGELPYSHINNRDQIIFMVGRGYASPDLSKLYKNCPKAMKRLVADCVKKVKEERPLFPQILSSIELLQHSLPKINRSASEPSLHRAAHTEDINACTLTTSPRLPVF

kinase still bound, per cent of control (PKN2 (human)): 100% | kinase still bound, per cent of control (MAP2K1 (human)): 100% | kinase still bound, per cent of control (HIPK3 (human)): 56% | kinase still bound, per cent of control (ALK (human)): 100% | kinase still bound, per cent of control (SBK1 (human)): 97% | kinase still bound, per cent of control (STK35 (human)): 94% | kinase still bound, per cent of control (BRAF (human)): 80% | kinase still bound, per cent of control (RAF1 (human)): 91% | kinase still bound, per cent of control (MAP3K15 (human)): 100% | kinase still bound, per cent of control (NEK7 (human)): 89% | kinase still bound, per cent of control (INSRR (human)): 72% | kinase still bound, per cent of control (SLK (human)): 8.7% | kinase still bound, per cent of control (SRPK1 (human)): 89% | kinase still bound, per cent of control (AURKA (human)): 100% | kinase still bound, per cent of control [1]: 100% | kinase still bound, per cent of control (MAPK10 (human)): 62% | kinase still bound, per cent of control (MAP3K7 (human)): 100% | kinase still bound, per cent of control (PLK2 (human)): 100% | kinase still bound, per cent of control (NEK2 (human)): 85% | kinase still bound, per cent of control [2]: 100% | kinase still bound, per cent of control [3]: 100% | kinase still bound, per cent of control (MAP4K1 (human)): 62% | kinase still bound, per cent of control (ZAP70 (human)): 100% | kinase still bound, per cent of control [4]: 100% | kinase still bound, per cent of control (RET (human)): 100% | kinase still bound, per cent of control (CHUK (human)): 84% | kinase still bound, per cent of control (MAPKAPK5 (human)): 100% | kinase still bound, per cent of control (DYRK2 (human)): 83% | kinase still bound, per cent of control (MAP3K4 (human)): 98% | kinase still bound, per cent of control [5]: 98% | kinase still bound, per cent of control (RPS6KA1 KD1 (human)): 58% | kinase still bound, per cent of control (CLK4 (human)): 7.8% | kinase still bound, per cent of control (ADCK3 (human)): 100% | kinase still bound, per cent of control (MAPK4 (human)): 100% | kinase still bound, per cent of control (EIF2AK2 (human)): 81% | kinase still bound, per cent of control (DCLK1 (human)): 100% | kinase still bound, per cent of control (CHEK1 (human)): 94% | kinase still bound, per cent of control (ERBB4 (human)): 100% | kinase still bound, per cent of control (ADCK4 (human)): 100% | kinase still bound, per cent of control (MAPK12 (human)): 100%
SMILES: Cn1cc(C2=C(c3ccc(Cl)cc3Cl)C(=O)NC2=O)c2ccccc21
kinase still bound, per cent of control (NEK9 (human)): 100%
